In ChEMBL document CHEMBL5096149, “Recent Update on Targeting c-MYC G-Quadruplexes by Small Molecules for Anticancer Therapeutics” (J Med Chem, 2021):
Blank lines part the entries; values can stand above or below the molecule they belong to.

How the values were obtained:
Quadruplex DNA [1] = test: Binding affinity to c-MYC G-quadruplex (Mer22) DNA (unknown origin) assessed as second order binding constant by isothermal titration calorimetry method; assay type: nucleic-acid assay
Quadruplex DNA [2] = test: Thermal stabilization of c-MYC G-quadruplex (Mer22) DNA (unknown origin) assessed as change in melting temperature at 1:3 ratio by FRET melting assay; assay type: nucleic-acid assay
Quadruplex DNA [3] = test: Binding affinity to c-MYC G-quadruplex (Mer22) DNA (unknown origin) assessed as association rate constant by surface plasmon resonance analysis; assay type: nucleic-acid assay
Quadruplex DNA [4] = test: Thermal stabilization of c-MYC G-quadruplex (Mer22) DNA (unknown origin) assessed as change in melting temperature at 1:3 ratio by UV-Vis spectroscopy; assay type: nucleic-acid assay
Quadruplex DNA [5] = test: Binding affinity to c-MYC G-quadruplex (Mer22) DNA (unknown origin) assessed as first order binding constant by isothermal titration calorimetry method; assay type: nucleic-acid assay
Quadruplex DNA [6] = test: Binding affinity to c-MYC G-quadruplex DNA (unknown origin) assessed as association rate constant by fluorometric titration method; assay type: nucleic-acid assay
Quadruplex DNA [7] = test: Thermal stabilization of c-MYC G-quadruplex DNA (unknown origin) assessed as change in melting temperature at 1:10 ratio by FRET melting assay; assay type: nucleic-acid assay
Quadruplex DNA [8] = test: Thermal stabilization of c-MYC G-quadruplex DNA (unknown origin) assessed as change in melting temperature at 1:5 ratio by circular dichroism spectroscopy; assay type: nucleic-acid assay
Quadruplex DNA [9] = test: Binding affinity to c-MYC G-quadruplex DNA (unknown origin) assessed as association rate constant by UV-Vis spectroscopy; assay type: nucleic-acid assay
Quadruplex DNA [10] = test: Thermal stabilization of c-MYC G-quadruplex DNA (unknown origin) assessed as change in melting temperature at 1:3 ratio by circular dichroism spectroscopy; assay type: nucleic-acid assay
Quadruplex DNA [11] = test: Thermal stabilization of c-MYC G-quadruplex DNA (unknown origin) assessed as change in melting temperature at 1:2.5 ratio by FRET melting assay; assay type: nucleic-acid assay
Quadruplex DNA [12] = test: Binding affinity to c-MYC G-quadruplex DNA (unknown origin) assessed as second order binding constant by electrospray ionization mass spectrometry; assay type: nucleic-acid assay
Quadruplex DNA [13] = test: Binding affinity to c-MYC G-quadruplex DNA (unknown origin) assessed as first order binding constant by electrospray ionization mass spectrometry; assay type: nucleic-acid assay
[14] = Antiproliferative activity against human Kidney epithelial cells assessed as inhibition of cell growth by XTT assay; assay type: toxicity, cell-based
HeLa = test: Antiproliferative activity against human HeLa cells assessed as inhibition of cell growth by XTT assay; assay type: functional, cell-based
Quadruplex DNA [15] = test: Binding affinity to c-MYC G-quadruplex DNA (unknown origin) assessed as association constant by fluorescence spectroscopy; assay type: nucleic-acid assay
Quadruplex DNA [16] = test: Thermal stabilization of c-MYC G-quadruplex DNA (unknown origin) assessed as change in melting temperature at 1:5 ratio by FRET melting assay; assay type: nucleic-acid assay
Quadruplex DNA [17] = test: Thermal stabilization of c-MYC G-quadruplex DNA (unknown origin) assessed as change in melting temperature at 1:1 ratio in absence of K+ by FRET melting assay; assay type: nucleic-acid assay
Quadruplex DNA [18] = test: Thermal stabilization of c-MYC G-quadruplex DNA (unknown origin) assessed as change in melting temperature at 1:1 ratio in presence of K+ by FRET melting assay; assay type: nucleic-acid assay
RPMI-8226 = test: Cytotoxicity against human RPMI-8226 cells assessed as inhibition of cell viability incubated for 72 hrs by MTS assay; assay type: functional, cell-based; conditions: RPMI-8226, 72 h
[19] = Cytotoxicity against human MOLP8 cells assessed as inhibition of cell viability incubated for 72 hrs by MTS assay; assay type: functional, cell-based; conditions: MOLP-8, 72 h
Quadruplex DNA [20] = test: Binding affinity to c-MYC G-quadruplex (Pu22) DNA (unknown origin) assessed as association rate constant by surface plasmon resonance analysis; assay type: nucleic-acid assay
Quadruplex DNA [21] = test: Thermal stabilization of c-MYC G-quadruplex (Pu22) DNA (unknown origin) assessed as change in melting temperature at 1:1 ratio by circular dichroism spectroscopy; assay type: nucleic-acid assay
[22] = Cytotoxicity against human ARD cells assessed as inhibition of cell viability incubated for 72 hrs by MTS assay; assay type: functional, cell-based
KMS-12-PE = test: Cytotoxicity against human KMS-12-PE cells assessed as inhibition of cell viability incubated for 72 hrs by MTS assay; assay type: functional, cell-based
[23] = Cytotoxicity against human KMS-27 cells assessed as inhibition of cell viability incubated for 72 hrs by MTS assay; assay type: functional, cell-based; conditions: KMS-27, 72 h
[24] = Cytotoxicity against human JIM1 cells assessed as inhibition of cell viability incubated for 72 hrs by MTS assay; assay type: functional, cell-based; conditions: JIM1, 72 h
LP-1 = test: Cytotoxicity against human LP-1 cells assessed as inhibition of cell viability incubated for 72 hrs by MTS assay; assay type: functional, cell-based; conditions: LP-1, 72 h
L-363 = test: Cytotoxicity against human L-363 cells assessed as inhibition of cell viability incubated for 72 hrs by MTS assay; assay type: functional, cell-based; conditions: L-363, 72 h
[25] = Cytotoxicity against human KMM-1 cells assessed as inhibition of cell viability incubated for 72 hrs by MTS assay; assay type: functional, cell-based; conditions: KMM-1, 72 h
AMO1 = test: Cytotoxicity against human AMO1 cells assessed as inhibition of cell viability incubated for 72 hrs by MTS assay; assay type: functional, cell-based; conditions: AMO1, 72 h
Quadruplex DNA [26] = test: Binding affinity to c-MYC G-quadruplex (Mer22) DNA (unknown origin) assessed as binding rate constant by surface plasmon resonance analysis; assay type: nucleic-acid assay
[27] = Cytotoxicity against human Karpas-417 cells assessed as inhibition of cell viability incubated for 72 hrs by MTS assay; assay type: functional, cell-based; conditions: Karpas-417, 72 h
[28] = Cytotoxicity against human Fibroblast cells assessed as inhibition of cell viability incubated for 72 hrs by MTS assay; assay type: toxicity, cell-based
CA46 = test: Cytotoxicity against human CA46 cells assessed as inhibition of cell viability incubated for 72 hrs by MTS assay; assay type: functional, cell-based; conditions: CA46, 72 h
[29] = Cytotoxicity against human OPM-1 cells assessed as inhibition of cell viability incubated for 72 hrs by MTS assay; assay type: functional, cell-based; conditions: OPM-1, 72 h
Quadruplex DNA [30] = test: Binding affinity to c-MYC G-quadruplex DNA (unknown origin) assessed as association rate constant by surface plasmon resonance analysis; assay type: nucleic-acid assay
NCI-H929 = test: Cytotoxicity against human NCI-H929 cells assessed as inhibition of cell viability incubated for 72 hrs by MTS assay; assay type: functional, cell-based; conditions: NCI-H929, 72 h
Quadruplex DNA [31] = test: Thermal stabilization of c-MYC G-quadruplex DNA (unknown origin) assessed as change in melting temperature at 1:4 ratio by circular dichroism spectroscopy; assay type: nucleic-acid assay
[32] = Cytotoxicity against human HEK293T cells assessed as inhibition of cell viability incubated for 72 hrs by MTS assay; assay type: toxicity, cell-based, HEK-293T

Compound: NCCC(=O)NCC1=C2CNC(=O)C3=CC(CNC(=O)CCN)=C(CNC(=O)c4cc(CNC(=O)CCN)c(o4)CNC(=O)C4=CC(CNC(=O)CCN)=C(CNC(=O)C(=C1)O2)O4)O3
- K (Quadruplex DNA [1]): 5.2 10^5/M
- ΔTm (Quadruplex DNA [2]): 23 °C
- Ka (Quadruplex DNA [3]): 4.85 10^6/M
- ΔTm (Quadruplex DNA [4]): 25 °C
- K (Quadruplex DNA [5]): 7.71 10^7/M

Compound: c1cc2ccc3ccc4nc3c2nc1CNCCCCCCNCc1ccc2ccc3ccc(nc3c2n1)CNCCCCCCNC4
- Ka (Quadruplex DNA [6]): 1.3 10^5/M
- ΔTm (Quadruplex DNA [7]): 17.2 °C
- ΔTm (Quadruplex DNA [8]): 15.1 °C

Compound: CN(C)CCn1c(NC(=O)c2ccc3ccc4ccc(C(=O)Nc5nc6ccccc6n5CCN(C)C)nc4c3n2)nc2ccccc21
- Ka (Quadruplex DNA [9]): 2.41 10^5/M
- ΔTm (Quadruplex DNA [10]): 19.6 °C

Compound: O=c1c2ccc3c4c(N5CCCCC5)cc5c(=O)n(CCN6CCCCC6)c(=O)c6cc7c(CCN8CCCCC8)cc8cc(c(=O)n1CCN1CCCCC1)c2c3c8c7c4c56
- ΔTm (Quadruplex DNA [11]): 16.4 °C
- K (Quadruplex DNA [12]): 6.3 10^5/M
- K (Quadruplex DNA [13]): 1.2 10^6/M

Compound: CN(CCCCn1cc(CCCC(=O)OC[C@H]2O[C@@H](n3cnc4c(=O)[nH]c(N)nc43)[C@@H]3OC(C)(C)O[C@@H]32)nn1)Cc1c2ccccc2c(CN(C)CCCCn2cc(CCCC(=O)OC[C@H]3O[C@@H](n4cnc5c(=O)[nH]c(N)nc54)[C@@H]4OC(C)(C)O[C@@H]43)nn2)c2ccccc12
- IC50 [14]: > 50 µM
- IC50 (HeLa): 6.2 µM
- Ka (Quadruplex DNA [15]): 2.56 10^6/M
- ΔTm (Quadruplex DNA [16]): 8.8 °C

Compound: CN(C)CCCNC(=O)c1ccc(-n2cc(-c3ccc4[nH]c5ccc(-c6cn(-c7ccc(C(=O)NCCCN(C)C)cc7)nn6)cc5c4c3)nn2)cc1
- ΔTm (Quadruplex DNA [17]): 23.5 °C
- ΔTm (Quadruplex DNA [18]): 24 °C

Compound: NCC1=C2CNC(=O)C3=CC(CN)=C(CNC(=O)c4cc(CN)c(o4)CNC(=O)C4=CC(CN)=C(CNC(=O)C(=C1)O2)O4)O3
- K (Quadruplex DNA [26]): 2.87 10^7/M
- K (Quadruplex DNA [1]): 1.86 10^6/M
- ΔTm (Quadruplex DNA [2]): 18 °C
- ΔTm (Quadruplex DNA [4]): 18 °C
- K (Quadruplex DNA [5]): 2.4 10^7/M

The next lines start with results.

- Ka (Quadruplex DNA [6]): 1.4 10^5/M
- ΔTm (Quadruplex DNA [7]): 11.3 °C
- ΔTm (Quadruplex DNA [8]): 19.3 °C
Compound: c1cc2ccc3ccc4nc3c2nc1CNCCCCCCNC4

- Ka (Quadruplex DNA [20]): 2.2 10^5/M
- ΔTm (Quadruplex DNA [21]): 2.1 °C
Compound: Cc1ccc(NC(=O)c2c(C)oc3ccc(O)c(CN4CCCCCC4)c23)cc1
- IC50 (RPMI-8226): 15.9 µM
- IC50 [19]: 8.3 µM
- IC50 [22]: 12.9 µM
- IC50 (KMS-12-PE): 6.5 µM
- IC50 [23]: 9.6 µM
- IC50 [24]: 14.1 µM
- IC50 (LP-1): 8.3 µM
- IC50 (L-363): 5.8 µM
- IC50 [25]: 15.6 µM
- IC50 (AMO1): 11.3 µM

- Ka (Quadruplex DNA [15]): 1 10^6/M
Compound: CC1=CC2(c3cc(C)ccn3)C(=O)C=C(c3ccc4ccccc4c3)N2C=C1 (stereo unspecified)

- Ka (Quadruplex DNA [30]): 7.14 10^5/M
- Ka (Quadruplex DNA [15]): 1.06 10^5/M
- ΔTm (Quadruplex DNA [31]): 7.5 °C
Compound: Cc1oc2ccc(O)c(CN3CCCCCC3)c2c1C(=O)Nc1ccc(C(F)(F)F)cc1
- IC50 [27]: 4.8 µM
- IC50 at 72 h [28]: 19.6 µM
- IC50 [22]: 5.75 µM
- IC50 (KMS-12-PE): 5.3 µM
- IC50 [23]: 5.06 µM
- IC50 [24]: 6.35 µM
- IC50 (CA46): 9.2 µM
- IC50 [29]: 6.48 µM
- IC50 (L-363): 3.4 µM
- IC50 (NCI-H929): 4.89 µM
- IC50 [25]: 4.13 µM
- IC50 (AMO1): 5.92 µM
- IC50 at 72 h [32]: 34 µM
